The subject of one assay is SW-620 (ATCC: CCL-227). The assay is described as follows: Test of cancer cell growth inhibition (SRB), SW-620. The conditions noted are these: Homo sapiens, SW-620, 72 h, read-out: IC50 SW-620.
For assay [1], the target named is EGFR (EGFR type 1 kinase) (Homo sapiens, UniProt P00533). The assay is described as follows: Inhibition of EGFR enzyme (fluorescence polarization kinase assay).
Protocol: 10 μl of EGFR (EGFR type 1 kinase) was added to each well of a 96-well microplate.
The next assay deals with SK-Br3 (ATCC: HTB-30). The assay is described as follows: Test of cancer cell growth inhibition (SRB), SK-Br3. To be noted: Homo sapiens, SK-BR-3, 72 h, read-out: IC50 SK-Br-3.
In a further assay the test system is A431 (ATCC: CRL-1555). The assay is described as follows: Test of cancer cell growth inhibition (SRB), A431. The conditions noted are these: Homo sapiens, A-431, 72 h, read-out: IC50 A431.

Sequence of EGFR (EGFR type 1 kinase) (P00533 25-1210, species assumed): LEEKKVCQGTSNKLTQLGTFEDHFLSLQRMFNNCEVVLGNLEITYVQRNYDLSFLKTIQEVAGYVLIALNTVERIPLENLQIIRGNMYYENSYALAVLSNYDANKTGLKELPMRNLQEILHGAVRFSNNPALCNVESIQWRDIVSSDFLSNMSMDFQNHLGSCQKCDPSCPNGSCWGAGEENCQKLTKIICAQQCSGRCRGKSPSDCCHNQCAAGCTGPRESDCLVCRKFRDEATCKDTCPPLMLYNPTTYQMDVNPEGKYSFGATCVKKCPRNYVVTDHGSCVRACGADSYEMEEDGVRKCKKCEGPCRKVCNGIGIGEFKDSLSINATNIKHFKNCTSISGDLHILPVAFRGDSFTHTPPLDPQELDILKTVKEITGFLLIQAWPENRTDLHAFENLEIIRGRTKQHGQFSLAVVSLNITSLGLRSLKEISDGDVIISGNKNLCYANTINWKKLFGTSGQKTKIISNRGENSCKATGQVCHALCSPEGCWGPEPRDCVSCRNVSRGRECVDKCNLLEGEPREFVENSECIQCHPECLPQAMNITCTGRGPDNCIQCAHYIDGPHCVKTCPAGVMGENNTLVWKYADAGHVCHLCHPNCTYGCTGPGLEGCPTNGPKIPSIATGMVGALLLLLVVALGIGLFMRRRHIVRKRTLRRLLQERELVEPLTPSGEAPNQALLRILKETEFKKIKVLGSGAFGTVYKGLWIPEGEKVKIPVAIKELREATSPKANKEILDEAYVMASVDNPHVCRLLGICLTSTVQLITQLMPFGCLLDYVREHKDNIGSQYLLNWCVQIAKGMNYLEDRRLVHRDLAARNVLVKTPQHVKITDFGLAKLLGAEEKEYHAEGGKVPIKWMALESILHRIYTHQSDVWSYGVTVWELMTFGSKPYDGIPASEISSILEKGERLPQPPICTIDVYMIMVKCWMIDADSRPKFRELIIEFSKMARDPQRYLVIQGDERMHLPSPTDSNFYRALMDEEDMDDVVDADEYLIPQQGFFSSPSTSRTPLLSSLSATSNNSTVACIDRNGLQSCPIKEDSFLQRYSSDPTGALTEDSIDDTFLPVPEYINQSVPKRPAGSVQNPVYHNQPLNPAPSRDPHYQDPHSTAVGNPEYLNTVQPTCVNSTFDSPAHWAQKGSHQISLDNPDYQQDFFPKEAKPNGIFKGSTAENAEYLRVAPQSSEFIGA

In the case of `C=CC(=O)NCCC(=O)Nc1ccc2ncnc(Nc3ccc(OCc4cccc(F)c4)c(Cl)c3)c2c1` [Example 22, N-(2-{4-[3-chloro-4-(3-fluoro-benzyloxy)-phenylamino]-quinazolin-6-ylcarbamoyl}-ethyl)-acrylamide], the half-inhibitory concentration (IC50) with SW-620 (ATCC: CCL-227) was over 10000 nM; in assay [1], 3 nM; in the assay on SK-Br3 (ATCC: HTB-30), 3 nM; in the assay on A431 (ATCC: CRL-1555), 58 nM.

(Values after patent US8003658B2, “Quinazoline derivatives for inhibiting cancer cell growth and method for the preparation thereof” (Hanmi Holdings Co., Ltd., priority 2004, dated 2011).)
